# Source: US20090099095A1, “Novel neuroprotective peptide” (priority 2007, published 2009)
# How the values were obtained:
# [1] = system: cells in the dentate gyrus of OHSCs; assay: Immunofluorescence count of dentate gyrus cells double-labelled for PI and DCX or NeuN after NMDA; type: cell-based, rat
# Procedure: To determine the cell types which were protected by pentinin, we fixed OHSCs and performed immunofluorescence for markers of neuronally committed progenitors (DCX) and neurons (NeuN). Cells in the dentate gyrus were counted, and the percentage of cells double-labelled for PI and each marker was determined.
# To characterise cell death, OHSCs were cultured in N2 medium with different concentrations of NMDA (in the presence of PI). After 24 h, OHSCs were washed in PBS and fixed in 4% paraformaldehyde (overnight, 4° C.). OHSCs were blocked and permeabilised by incubation for two hours in PTS (0.1M sodium phosphate buffer, 0.3% triton X-100 and 1% donkey serum (Jackson Immunoresearch Laboratories Inc., West Grove, Pa.)) at room temperature (RT), then incubated overnight (rocking, 4° C.) with mouse anti-NeuN antibody (1:500, Chemicon International Inc, Temecula, Calif.), rabbit anti-Caspase3A antibody (1:250, Cell Signalling Technology), and goat anti doublecortin antibody (Dcx, 1:400, Santa Cruz Biotechnology, Santa Cruz, USA). After thorough washing (3×30 mins in PTS, rocking), OHSCs were incubated overnight (rocking, 4° C.) with donkey anti-mouse Alexa 647-conjugated antibody (1:800, Molecular Probes, Leiden, Netherlands), donkey anti-rabbit Alexa 488-conjugated antibody (1:800, Molecular Probes) and donkey anti-goat Alexa 488-conjugated antibody (1:800, Molecular Probes). OHSCs were washed thoroughly and mounted in Prolong Gold mounting medium (Molecular Probes). Colocalisation of PI and/or Caspase3A staining with NeuN and Dcx immunofluorescence was determined by confocal microscopy (Leica TCS SP2, Leica Microsystems AG, Wetzlar, Germany).
# [2] = system: organotypic hippocampal slice cultures (OHSCs); assay: NMDA-induced excitotoxicity in organotypic hippocampal slice cultures, propidium iodide (PI) uptake; type: cell-based, rat
# Procedure: To test the neuroprotective qualities of test media, OHSCs were first preincubated with PI for 24 hours. Fluorescent photomicrographs were taken, and used to determine the level of background staining. OHSCs were then transferred to test media one hour before 10 μM NMDA was added. Photomicrographs were taken again after 24 hours of NMDA exposure, and the change in PI staining intensity was quantified.
# Rat organotypic hippocampal slice cultures (400 μm thick) were prepared from P9 Sprague-Dawley rats, using the method of Stoppini and coworkers^9. OHSCs were cultured in slice medium (50% BME, 25% EBSS, 23% horse serum, 7.5 mg/ml D-glucose, 1 mM L-glutamine and 25 U/ml PEST) for 12-14 days before experiments commenced.
# OHSCs were transferred to test media one hour before exposure to 10 μM NMDA for 24 h. The degree of NMDA-induced excitotoxicity was determined by comparing propidium iodide (PI) uptake prior to exposure with that following exposure. Pictures were captured using a digital camera (Olympus DP50) coupled to an inverted fluorescence microscope (Olympus IX70), equipped with a red long-pass WG fluorescence filter. Uptake of PI was quantified as the mean pixel intensity of epifluorescence, over the whole slice, or in defined sub-regions (ImageJ v1.29x).
# [3] = system: organotypic hippocampal slice cultures (OHSCs); settings: high doses, literature ref 10; cited from earlier work
Molecule,reduction of percentage of immature neuronal marker (DCX) cells co-labelled with PI ([1]; 100 pM pentinin) [%],reduction of percentage of mature neuronal marker (NeuN) cells co-labelled with PI ([1]; 100 pM pentinin) [%],number of neurons killed by NMDA-induced toxicity ([1]; 100 pM synthetic pentinin),effect on excitotoxicity induced by NMDA ([2]; 100 μM peptide in unconditioned medium),"effective dose in dose response assay ([2]; synthetic peptide added to unconditioned medium, results not shown) [µM]","effect on NMDA-induced excitotoxicity / PI staining (in words) ([2]; whole slice, 10 μM NMDA 24 h, GDNF at 1 ng/ml where added)",doses at which neuroprotective in OHSCs [3] [ng/mL]
"tyr, thr, pro, lys, thr (YTPKT; Human) [pentinin, pentameric peptide fragment corresponding to residues 26-30 of the insulin B chain]",86,64,markedly reduced,reduce excitotoxicity,100,–,–
"glial-derived neurotrophic factor (protein, UniProt P39905 78-211, looked up, recombinant protein added to control medium at 1 ng/ml) Glial cell line-derived …: SPDKQMAVLPRRERNRQAAAANPENSRGKGRRGQRGKNRGCVLTAIHLNVTDLGLGYETKEELIFRYCSGSCDAAETTYDKILKNLSRNRRLVSDKVGQACCRPIAFDDDLSFLDDNLVYHILRKHSAKRCGCI",–,–,–,–,–,did not reduce excitotoxicity,50 to 100
